Results from PMC10135964, “One Scaffold, Two Conformations: The Ring-Flip of the Messenger InsP8 Occurs under Cytosolic Conditions” (Biomolecules, 2023).
Read-outs that look alike come from different tables or passages of the source.

Columns and labels:
[1] = Van't Hoff thermodynamic analysis of InsP8 conformational equilibrium; assay type: physicochemical; settings: 10 mM NaCl; for ΔH^0 of eq. to ax. conformational transition / ΔS^0 of eq. to ax. conformational transition: 50 µM InsP8, pH* 7.5, 130 mM KCl
Protocol: BIRD-HMQC NMR spectra were recorded as described above, at 274–283 K in 1 K steps, two replicate samples per condition. Instrument temperature was calibrated against d4-methanol according to Findeisen et al..
Samples contained 50 µM InsP8, 5 mM HEPES pH* 7.5 (pH set on ice), 130 mM KCl, 10 mM NaCl, and either 100 µM or 250 µM MgCl2. Acquisition parameters were SW(^13C): 62–82 ppm, NS: 2048, TD(^13C): 16.
The best-isolated peaks (the 2-peak of ax. and 1-peak of eq. conformer) were integrated, subtracting 1PP-InsP5 impurities. The ax./eq. ratio (i.e., equilibrium constant K for the eq. to ax. transition) was plotted against 1/T, where T is temperature in Kelvin.
ΔH^0 and ΔS^0 were calculated from the regression line. Two replicates were combined for the linear regression.

[2] = 31P-NMR titrations of InsP8 (protonation, K+ and Mg2+ complex formation constants, HypNMR); assay type: physicochemical; settings: for pH of the conformational change: 1 mM InsP8, 22 °C
Protocol: In order to create a system free of coordinating counterions, a batch of InsP8 was synthesized as described above, by enzymatic phosphorylation of 5PP-InsP5 and precipitation with Mg^2+, followed by Mg^2+ chelation on Amberlite® cation exchange resin. Unlike in the standard procedure, the resin was loaded with NMe4Cl instead of NH4CO3, resulting in a batch of InsP8 with non-coordinating NMe4^+ counterions. 1 mM EDTA was added to all ^31P-NMR titrations to chelate remaining traces of Mg^2+.
NMR-samples contained 1 mM InsP8, 1 mM EDTA, pH 3.0–12.5 (in H2O, steps of 0.5 pH units) and a) for the non-coordinating condition: 150 mM NMe4Cl or b) 150 mM KCl or c) 150 mM KCl and 1 mM MgCl2. Sealed glass capillaries containing 50 mM phosphonoacetic acid in D2O were added into the sample tubes for locking and chemical shift calibration.
^31P-NMR spectra were recorded at 295 K on a Bruker spectrometer (see above) operating at 600 MHz for protons and 244 MHz for phosphorous nuclei. SW: −40 ppm to −20 ppm, NS: 1024. Spectra at pH 3.0 were assigned by various 2D-NMR methods (Figure S5) and chemical shift changes were tracked across the pH range.
The data were analyzed using the HypNMR 2006 software (Hyperquad Limited, Lincoln, UK). Different possible stoichiometries were tested, and the final chemical models were selected on the basis of the σ parameter (scaled sum of square differences between predicted and experimental chemical shift values), the model confidence level estimator (chi square), and the internal consistency of data reflected in standard deviations of the formation constants. Species distribution diagrams were produced using the HySS program (Hyperquad Limited, Lincoln, UK).

VTC complex = system: VTC complex; parameters: method as in PMID 28186404; settings: in vitro, VTC complex from budding yeast S. cerevisiae; cited from earlier work
[3] = target: T1, yeast VTC2 SPX domain (residues 1–182) (Saccharomyces cerevisiae, UniProt P43585); experiment: Isothermal titration calorimetry of InsP8 binding to the VTC2 SPX domain; settings: 25 °C, pH 7.4, 150 mM KCl, 40 mM NaCl, mean of three replicates; for Kd: read-out: dissociation constant Kd
T1 construct: The VTC2 SPX domain (residues 1–182) was expressed with a C-terminal His6-tag; His6 (C); made in house
T1 sequence (P43585 1-182): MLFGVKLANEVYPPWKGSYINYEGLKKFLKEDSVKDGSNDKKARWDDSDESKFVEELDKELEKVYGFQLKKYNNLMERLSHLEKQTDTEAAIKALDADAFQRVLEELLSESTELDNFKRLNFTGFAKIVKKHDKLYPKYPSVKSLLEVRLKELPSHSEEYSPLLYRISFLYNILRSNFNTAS
Protocol: The VTC2 SPX domain (residues 1–182) was expressed with a C-terminal His6-tag and purified by Ni-affinity and size-exclusion chromatography, as previously published.
Protein stocks were diluted to 300 µL with final buffer conditions: 25 mM HEPES pH 7.4, 150 mM KCl, 40 mM NaCl, 0.5 mM TCEP (ITC buffer). The exact protein concentration for each replicate was determined separately by Bradford assay. InsP8 was diluted to 500 µM in ITC buffer. For binding experiments in the presence of magnesium ions, both dilution buffers were supplemented with MgCl2 to give a final concentration of 1 mM after dilution.
ITC experiments were carried out at 25 °C in a MicroCal PEAQ-ITC calorimeter (Malvern Panalytical GmbH, Kassel, Germany), with ca. 50 µM protein in the cell and 500 µM ligand in the syringe. InsP8 was titrated into the solution in nineteen 2 µL-steps. Spacing between injections was 150 s.
The corresponding instrument software (MicroCal PEAQ-ITC Analysis) was used for baseline correction, peak integration, data fitting and determination of binding parameters.

[4] = 1H,13C BIRD-HMQC NMR quantification of axial vs. equatorial conformer; assay type: physicochemical; settings: pH* 7.5, 5 equiv. Ca2+, 130 mM KCl, 10 mM NaCl

## O=P(O)(O)O[C@@H]1[C@@H](OP(=O)(O)O)[C@H](OP(=O)(O)OP(=O)(O)O)[C@@H](OP(=O)(O)O)[C@H](OP(=O)(O)OP(=O)(O)O)[C@@H]1OP(=O)(O)O [InsP8, 1,5(PP)2-InsP4]
[1]; 2 equiv. MgCl2, 274–283 K
  ΔH^0 of eq. to ax. conformational transition: -17.1 ± 2.1 kcal/mol
  ΔS^0 of eq. to ax. conformational transition: −0.063 ± 0.008 kcal/(mol·K)
[1]; 5 equiv. MgCl2, 274–283 K
  ΔH^0 of eq. to ax. conformational transition: -7.2 ± 1.9 kcal/mol
  ΔS^0 of eq. to ax. conformational transition: −0.025 ± 0.007 kcal/(mol·K)
[1]; 2 equiv. Mg2+, pH* 7.5, 130 mM KCl
  axial conformer estimated at 37 °C (Gibbs-Helmholtz equation): about 2%
[1]; 5 equiv. Mg2+, pH* 7.5, 130 mM KCl
  axial conformer predicted at 37 °C (310 K): 29%
[2]; 150 mM K+
  pH of the conformational change: 8.5–9.0
[2]; 150 mM KCl and 1 mM MgCl2, 1 mM InsP8, 22 °C
  pH of the transition to the equatorial conformation: ~8.5
[2]; 31P NMR, 22 °C, I = 0.15 M
  log K, 2 K^+ + H5L^9− ↔ [K2(H5L)]^7−: 3.820(7)
  log K, 3 K^+ + H4L^10− ↔ [K3(H4L)]^7−: 5.446(5)
  log K, 4 K^+ + H2L^12− ↔ [K4(H2L)]^8−: 9.76(3)
  log K, 5 K^+ + HL^13− ↔ [K5(HL)]^8−: 12.47(3)
  log K, K^+ + H6L^8− ↔ [K(H6L)]^7−: 2.58(5)
  log K, K^+ + H7L^7− ↔ [K(H7L)]^6−: 2.08(3)
  log K, L^14− + 2 H^+ ↔ H2L^12−: 22.78(2)
  log K, L^14− + 3 H^+ ↔ H3L^11−: 34.22(2)
  log K, L^14− + 4 H^+ ↔ H4L^10−: 43.96(2)
  log K, L^14− + 5 H^+ ↔ H5L^9−: 52.58(3)
  log K, L^14− + 6 H^+ ↔ H6L^8−: 59.41(8)
  log K, L^14− + 7 H^+ ↔ H7L^7−: 64.91(6)
  log K, L^14− + 8 H^+ ↔ H8L^6−: 68.79(7)
  log K, L^14− + H^+ ↔ HL^13−: 11.21(1)
  log K, Mg^2+ + H2L^12− + 3 K^+ ↔ [MgK3(H2L)]^7−: 18.1(1)
  log K, Mg^2+ + H4L^10− + 2 K^+ ↔ [MgK2(H4L)]^6−: 11.6(1)
  log K, Mg^2+ + H5L^9− + K^+ ↔ [MgK(H5L)]^6−: 9.1(1)
  log K, Mg^2+ + H6L^8− + K^+ ↔ [MgK(H6L)]^5−: 7.3(1)
  log K, Mg^2+ + HL^13− + 4 K^+ ↔ [MgK4(HL)]^7−: 21.6(1)
  log K, Mg^2+ + L^14− + 4 K^+ ↔ [MgK4L]^8−: 22.4(1)
[2]; pH 7.4
  negative charges carried: 10–11
[2]; physiological pH range, 150 mM KCl and 1 mM MgCl2, 22 °C
  most abundant species: [MgK3(H3L)]^6−
[2]; without coordinating cations (150 mM NMe4Cl)
  pH of the conformational change: ~11
VTC complex
  effectiveness at activating polyphosphate synthesis by the VTC complex: twenty-times more effective than 5PP-InsP5
[3]; 1 mM MgCl2
  ΔH of binding: -5.9 kcal/mol
  −TΔS of binding: -3.3 kcal/mol
  Kd: 0.205 µM
[3]; without divalent ions
  ΔH of binding: -3.5 kcal/mol
  −TΔS of binding: -5.2 kcal/mol
  Kd: 0.373 µM
[4]
  proportion in axial conformation: About 15%
